Measurements published in paper PMC11123841, “Discovery and Synthesis of Hydroxy-L-Proline Blockers of the Neutral Amino Acid Transporters SLC1A4 (ASCT1) and SLC1A5 (ASCT2)” (Molecules, 2024).

Experiments:
SLC1A3 (EAAT1) = target: T1, SLC1A3 (EAAT1) (Homo sapiens, UniProt P43003); assay: TEVC in oocytes expressing glutamate transporter; assay type: cell-based; conditions: SLC1A3; applied at 1 mM
T1 construct: expressed in transfected cells; host or cells: Xenopus laevis oocytes (cRNA injection)
T1 sequence (P43003 whole entry): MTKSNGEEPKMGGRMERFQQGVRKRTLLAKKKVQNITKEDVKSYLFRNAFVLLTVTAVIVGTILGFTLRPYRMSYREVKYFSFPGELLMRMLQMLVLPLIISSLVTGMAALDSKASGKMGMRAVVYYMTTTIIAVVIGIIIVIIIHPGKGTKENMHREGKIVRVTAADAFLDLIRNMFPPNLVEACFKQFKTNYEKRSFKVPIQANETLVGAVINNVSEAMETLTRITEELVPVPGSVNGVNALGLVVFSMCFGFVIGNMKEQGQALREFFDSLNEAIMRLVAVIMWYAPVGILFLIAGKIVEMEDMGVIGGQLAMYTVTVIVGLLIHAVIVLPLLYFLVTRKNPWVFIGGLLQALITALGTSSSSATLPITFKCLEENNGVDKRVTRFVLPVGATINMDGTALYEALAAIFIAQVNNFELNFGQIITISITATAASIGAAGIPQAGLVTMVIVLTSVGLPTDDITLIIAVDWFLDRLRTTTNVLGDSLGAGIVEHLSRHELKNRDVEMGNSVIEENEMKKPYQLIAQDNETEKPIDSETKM
Description: (§1) Additionally, 4-HP applied at 1 mM was used to assess activity at the glutamate transporters SLC1A3 or SLC1A1.
(§2) BPOHP activity was evaluated against the glutamate transporters paralogs within the SLC1A gene family (SLC1A 1–3) as well as at neutral amino acid transporters that share common ligand substrates with the SLC1 family including SLC38A1,2, and 4 (ATA1, ATA2, ATA3) and heteromeric transporters SLC7A10+SLC3A2 (asc-1/4f2).
(§3) Uptake was halted by washing 3 times with 4 °C ND96 buffer. Oocytes were then lysed in 0.1% Triton X-100, and radioactivity was counted via liquid scintillation. Dose response curves were generated by fitting fractional inhibition (I) to the expression I = Imax × [inhibitor]/([inhibitor] + IC50).
(§4) Two-electrode voltage clamp (TEVC) transporter currents were recorded with a GeneClamp 500 amplifier and Digidata 1320A analog–digital interface (Molecular Devices, San Jose, CA, USA). Electrodes (0.2–1.0 MΩ) were filled with 3M KCl and the recording chamber was grounded with an agar bridge. Data were acquired with Axograph (v1.7.6) and LabChart (v7) and analyzed with Kaleidagraph software (v4.1) (Synergy, Reading, PA, USA). Uncoupled anion currents associated with the transport of substrate and block of SLC1A4 or SLC1A5 mediated leak conductance were recorded in the presence of Ringer with 50% substitution of NaCl by NaSCN to amplify the non-transported anion conductance.
(§5) Figure SM-2 TEVC from oocytes expressing SLC1A1-3 transporters.
(§6) (1 picture or pasted object on this page, not shown here)

SLC1A1 (EAAT3) = target: T2, SLC1A1 (EAAT3) (Homo sapiens, UniProt P43005); assay: TEVC in oocytes expressing glutamate transporter; assay type: cell-based; conditions: SLC1A1; applied at 1 mM
T2 construct: expressed in transfected cells; host or cells: Xenopus laevis oocytes (cRNA injection)
T2 sequence (P43005 1-524): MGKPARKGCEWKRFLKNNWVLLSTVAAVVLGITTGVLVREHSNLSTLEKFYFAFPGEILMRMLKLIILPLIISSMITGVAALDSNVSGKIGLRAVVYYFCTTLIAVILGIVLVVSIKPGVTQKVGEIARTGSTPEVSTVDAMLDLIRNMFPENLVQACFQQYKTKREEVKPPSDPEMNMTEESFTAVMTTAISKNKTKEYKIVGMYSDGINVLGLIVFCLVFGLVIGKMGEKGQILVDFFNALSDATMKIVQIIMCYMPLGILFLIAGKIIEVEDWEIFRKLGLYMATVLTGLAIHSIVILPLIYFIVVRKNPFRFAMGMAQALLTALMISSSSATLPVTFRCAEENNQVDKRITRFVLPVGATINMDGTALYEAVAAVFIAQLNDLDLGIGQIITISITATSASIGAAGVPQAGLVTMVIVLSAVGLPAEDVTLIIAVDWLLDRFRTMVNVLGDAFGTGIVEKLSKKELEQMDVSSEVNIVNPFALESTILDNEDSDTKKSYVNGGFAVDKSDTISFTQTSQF
Description: as §1, §2, §3, §4, §5, §6

SLC1A4 = tested on: SLC1A4; design: method as in PMID 14502423; conditions: cited from earlier work
SLC38A2 (ATA2) = target: T3, SLC38A2 (ATA2) (Homo sapiens, UniProt Q96QD8); assay: TEVC electrogenic coupled currents in oocytes; assay type: cell-based; conditions: induced currents
T3 construct: expressed in transfected cells; host or cells: Xenopus laevis oocytes (cRNA injection)
T3 sequence (Q96QD8 1-506): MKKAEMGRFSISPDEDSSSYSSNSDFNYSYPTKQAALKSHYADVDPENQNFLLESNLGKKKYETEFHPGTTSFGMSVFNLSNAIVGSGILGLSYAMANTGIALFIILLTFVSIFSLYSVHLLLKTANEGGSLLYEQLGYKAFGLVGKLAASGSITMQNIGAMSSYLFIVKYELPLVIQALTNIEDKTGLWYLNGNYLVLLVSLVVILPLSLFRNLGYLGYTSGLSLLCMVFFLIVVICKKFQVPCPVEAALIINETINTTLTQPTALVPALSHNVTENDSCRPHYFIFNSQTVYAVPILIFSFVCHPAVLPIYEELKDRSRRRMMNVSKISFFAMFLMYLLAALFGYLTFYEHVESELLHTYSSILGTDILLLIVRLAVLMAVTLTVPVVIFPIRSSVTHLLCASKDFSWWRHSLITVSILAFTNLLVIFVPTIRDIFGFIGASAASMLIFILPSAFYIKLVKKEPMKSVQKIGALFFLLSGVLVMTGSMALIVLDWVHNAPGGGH
Description: as §1, §2, §3
as §4, with “Electrodes (0.2–1.0 MΩ) were filled with 3M KCl and the recording chamber was grounded with an agar bridge.” left out, “conductance. […]” for “conductance.”

SLC1A5 = target: T4, SLC1A5 (Mus musculus, UniProt P51912); assay: [3H]L-Gln radiolabeled uptake competition in oocytes; assay type: cell-based
T4 construct: expressed in transfected cells; host or cells: Xenopus laevis oocytes (cRNA injection)
T4 sequence (P51912 1-553): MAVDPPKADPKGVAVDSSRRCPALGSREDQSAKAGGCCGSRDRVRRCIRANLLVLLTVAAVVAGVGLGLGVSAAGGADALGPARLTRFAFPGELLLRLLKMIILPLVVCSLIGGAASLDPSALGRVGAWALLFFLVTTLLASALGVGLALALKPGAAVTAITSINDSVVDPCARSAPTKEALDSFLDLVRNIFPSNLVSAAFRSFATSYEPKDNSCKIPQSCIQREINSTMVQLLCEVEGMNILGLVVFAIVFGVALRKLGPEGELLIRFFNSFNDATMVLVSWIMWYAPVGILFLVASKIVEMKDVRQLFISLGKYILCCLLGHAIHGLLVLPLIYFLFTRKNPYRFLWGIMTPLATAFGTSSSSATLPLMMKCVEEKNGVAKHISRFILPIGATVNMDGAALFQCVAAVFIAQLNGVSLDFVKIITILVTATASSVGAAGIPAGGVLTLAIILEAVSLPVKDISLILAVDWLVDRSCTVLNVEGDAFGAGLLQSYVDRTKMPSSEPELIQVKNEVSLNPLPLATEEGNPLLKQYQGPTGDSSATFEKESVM
Description: as §3
(A) SLC1A4 dose response curves for substrate activated anion currents using two-electrode voltage clamp of Xenopus lavies oocytes (−30 mV). […] (B) SLC1A5 dose response curve for substrate activated anion currents using two-electrode voltage clamp (−30 mV). […] Extracellular solutions contained 50 mM NaSCN.

SMILES: O=C(O)[C@@H]1C[C@@H](O)CN1 [4-HP, trans-4-hydroxy-L-proline, reference compound]
- TEVC current response or block (SLC1A3 (EAAT1)): No TEVC current response or block was observed
- TEVC current response or block (SLC1A1 (EAAT3)): No TEVC current response or block was observed
- increase in affinity for SLC1A4 over L-proline (SLC1A4): approximately 20 fold
- Km (SLC38A2 (ATA2)): 3.1 mM
- IC50 (SLC1A5): 108 µM
